Details: 293.15 K, Liquid, Vibrating tube method

CCCCCCCCCC [decane]
Details	mass density [kg/m3]
19602 kPa	743.9
19616 kPa	743.9
19630 kPa	743.8
19643 kPa	744
19662 kPa	744
19678 kPa	743.9
19692 kPa	744
19712 kPa	744
19726 kPa	744
19742 kPa	744
19763 kPa	744
19775 kPa	744
19793 kPa	744.1
19810 kPa	744.1
19824 kPa	744.2
19838 kPa	744.1
19852 kPa	744.1
19866 kPa	744.1
19883 kPa	744.1
19897 kPa	744.1
19914 kPa	744.2
19935 kPa	744.2
19950 kPa	744.2
19969 kPa	744.4
19983 kPa	744.2
19999 kPa	744.2
20016 kPa	744.2
20035 kPa	744.3
20055 kPa	744.2
20072 kPa	744.3
20084 kPa	744.3
20103 kPa	744.2
20120 kPa	744.2
20137 kPa	744.3
20152 kPa	744.2
20165 kPa	744.3
20181 kPa	744.2
20196 kPa	744.4
20218 kPa	744.4
20233 kPa	744.4
20251 kPa	744.3
20263 kPa	744.5
20288 kPa	744.3
20306 kPa	744.4
20326 kPa	744.3
20343 kPa	744.4
20365 kPa	744.5
20383 kPa	744.5
20398 kPa	744.5
20413 kPa	744.5
20428 kPa	744.5
20450 kPa	744.6
20470 kPa	744.5
20485 kPa	744.5
20503 kPa	744.6
20519 kPa	744.5
20535 kPa	744.6
20555 kPa	744.6
20576 kPa	744.6
20591 kPa	744.6
20611 kPa	744.6
20636 kPa	744.6
20654 kPa	744.6
20670 kPa	744.7
20688 kPa	744.8
20711 kPa	744.7
20727 kPa	744.6
20743 kPa	744.7
20764 kPa	744.6
20785 kPa	744.7
20803 kPa	744.7
20822 kPa	744.7
20837 kPa	744.9
20856 kPa	744.7
20872 kPa	744.8
20893 kPa	744.8
20909 kPa	744.8
20930 kPa	744.9
20946 kPa	744.9
20964 kPa	744.9
20980 kPa	744.9
20999 kPa	745
21015 kPa	744.9
21039 kPa	744.9
21058 kPa	744.9
21074 kPa	744.8
21093 kPa	744.9
21109 kPa	745
21128 kPa	744.9
21144 kPa	745
21163 kPa	745
21179 kPa	744.9
21196 kPa	745.1
21212 kPa	745
21228 kPa	744.9
21247 kPa	744.9
21266 kPa	745.1
21283 kPa	745.1
21304 kPa	745
21320 kPa	745.2
21339 kPa	745.1
21361 kPa	745.1
21381 kPa	745.2
21397 kPa	745.2
21417 kPa	745.2
21436 kPa	745.1
21453 kPa	745.1
21470 kPa	745.2
21492 kPa	745
21514 kPa	745.1
21534 kPa	745.2
21559 kPa	745.2
21576 kPa	745.2
21596 kPa	745.3
21619 kPa	745.3
21641 kPa	745.2
21661 kPa	745.2
21681 kPa	745.2
21704 kPa	745.4
21724 kPa	745.3
21747 kPa	745.4
21764 kPa	745.4
21789 kPa	745.5
21810 kPa	745.3
21827 kPa	745.3
21847 kPa	745.5
21865 kPa	745.5
21885 kPa	745.4
21900 kPa	745.3
21924 kPa	745.5
21947 kPa	745.5
21965 kPa	745.4
21983 kPa	745.4
22000 kPa	745.4
22018 kPa	745.5
22037 kPa	745.5
22053 kPa	745.5
